Experiments:
[1] = system: human lymphoblastoid TK6 cells; assay: MultiFlow DNA Damage assay (γH2AX, p53, p-H3, polyploidy); format: cell-based; settings: for MultiFlow summary classification (call and MoA): TK6 cells, 4H and 24H sampling
Procedure: Treated cells were gently resuspended and 25 µL/well was mixed thoroughly with the labeling solution. The plate was incubated for 30 min at room temperature shielded from light.
The γH2AX and p53 endpoints were measured based on their median fluorescence intensity (i.e., mean channel fluorescence or MCF) relative to the DMSO solvent control. The p-H3 and polyploidy endpoints were measured based on their frequencies among all events (i.e., all 2n–4n and polyploidy (8n) DNA content). The equations for calculating γH2AX shift, nuclear p53 shift, % polyploidy, and % p-H3 positive events are shown below.
Latex microspheres were used as counting beads to determine nuclear density.
Litron developed Global Evaluation Factors (GEF) to identify a biologically significant increase in select biomarker levels.
A clastogenic or aneugenic call required two successive concentrations that met or exceeded the GEFs in at least 2 of the 4 respective MoA biomarkers. Chemicals that met or exceeded two GEFs in a single non-cytotoxic concentration were designated as “weak” responses. In cases where both clastogen and aneugen biomarkers exceeded the GEF the MoA was considered pan-genotoxic. In cases where less than two biomarkers met the GEFs, the call was non-genotoxic.

[2] = system: human lymphoblastoid TK6 cells
chromosome damage [3] = system: chromosome damage; design: method as in Matsushima et al., 1999; Von Der Hude et al., 2000; settings: ref Matsushima et al., 1999; Von Der Hude et al., 2000; cited from earlier work
chromosome damage [4] = system: chromosome damage; design: method as in De Boeck et al., 2005; settings: ref De Boeck et al., 2005; cited from earlier work
[5] = system: human lymphoblastoid TK6 cells; assay: In vitro MicroFlow assay (flow cytometry-based micronucleus test); settings: for MicroFlow summary classification (MN induction): TK6 cells, 4H exposure, 24-h sampling
[6] = system: human lymphoblastoid TK6 cells; assay: Viability assessment (propidium iodide fluorescence, flow cytometry); settings: TK6 cells, ± S9, quantified at 24 h via propidium iodide
[7] = system: human lymphoblastoid TK6 cells; assay: TGx-DDI transcriptomic biomarker classification (TempO-Seq S1500+) and BMC modeling

Q: For `Cc1c2ccccc2c(C)c2c1ccc1ccccc12` [DMBA, 7,12-dimethylbenz[a]anthracene, reference compound], which “MultiFlow summary classification (call and MoA)” value ([1]; +S9) is on record?
A: + C

Q: What about the “MultiFlow summary classification (call and MoA)” value ([1]; -S9) of the same compound?
A: -

Q: And the “MultiFlow biomarkers with responses” value ([1]; fold-increase over solvent control)?
A: 4H & 24H ɣH2AX

Q: What about the TGx-DDI summary classification [2] of the same compound?
A: +

Q: What about the “Chromosome damage in vitro” value (chromosome damage [3]) of the same compound?
A: induce chromosome damage

Q: And the “Chromosome damage in vivo” value (chromosome damage [4])?
A: induce chromosome damage

Q: And the “MicroFlow summary classification (MN induction)” value ([5]; +S9)?
A: +

Q: What about the “MicroFlow summary classification (MN induction)” value ([5]; -S9) of the same compound?
A: +

Q: And the “MicroFlow %MN response (text)” value ([5]; positive: >2.5 fold-increase in %MN and p < 0.05 vs vehicle)?
A: significant fold-increases in %MN

Q: And the “Effect on cell viability” value [6]?
A: caused a decline in viability

Q: And the “Strength / consistency of TGx-DDI response (text)” value ([7]; across concentrations and the three statistical analyses)?
A: strong TGx-DDI response

Q: And the “TGx-DDI classification” value ([7]; overall call from 2-DC, PCA, NSC-PA, S9 condition as in Figure 1)?
A: DDI
